According to patent US20050079152A1, “Methods of elicit, enhance and sustain immune responses against MHC class I-restricted epitopes, for prophylactic or therapeutic purposes” (priority 2003, published 2005):

Test system: SSX241-49 epitope specific T cells
Assay: SSX2 tetramer staining in immunized mice
Assay type: in vivo
Conditions: for SSX2 antigen specificity, % of the available CD8 T cells (tetramer): entrained with pCBP plasmid, amplified with peptide analogue; for cross-reactivity with T cells specific for the SSX241-49 epitope: mouse, in vivo
Source text: These analogues are cross-reactive with T cells specific for the SSX241-49 epitope. These examples illustrate that the entrain-and-amplify protocol can elicit a SSX2 antigen specificity that approaches 80% of the available CD8 T cells. The pCBP plasmid and principles of its design are disclosed in U.S. patent application Ser. No. 10/292,413 (Pub. No. 20030228634 A1) entitled EXPRESSION VECTORS ENCODING EPITOPES OF TARGET-ASSOCIATED ANTIGENS AND METHODS FOR THEIR DESIGN, which is hereby incorporated by reference in its entirety. Additional methodology, compositions, peptides, and peptide analogues are disclosed in U.S. Provisional Application No. ______, (Attorney Docket MANNK.038PR), filed on the same date as the instant application, entitled “SSX-2 PEPTIDE ANALOGS;” which is incorporated herein by reference in its entirety. Further methodology, compositions, peptides., and peptide analogues are disclosed in U.S. Provisional Application No. ______, (Attorney Docket MANNK.039PR), filed on the same date as the instant application, entitled “NY-ESO PEPTIDE ANALOGS;” which is incorporated herein by reference in its entirety.

Substance: SSX241-49 K41F: K41F peptide analogue of SSX2-derived epitope KASEKIFYV (SSX2 41-49) (FASEKIFYV)
- SSX2 antigen specificity, % of the available CD8 T cells (tetramer): ~80%
- cross-reactivity with T cells specific for the SSX241-49 epitope: cross-reactive

Substance: K41Y: K41Y peptide analogue of SSX2-derived epitope KASEKIFYV (SSX2 41-49) (YASEKIFYV)
- SSX2 antigen specificity, % of the available CD8 T cells (tetramer): ~80%
- cross-reactivity with T cells specific for the SSX241-49 epitope: cross-reactive
